The target of one data set is T1, Integrin alpha-4/beta-7 (Homo sapiens, UniProt P13612+P26010).
T1 sequence (P13612 whole entry): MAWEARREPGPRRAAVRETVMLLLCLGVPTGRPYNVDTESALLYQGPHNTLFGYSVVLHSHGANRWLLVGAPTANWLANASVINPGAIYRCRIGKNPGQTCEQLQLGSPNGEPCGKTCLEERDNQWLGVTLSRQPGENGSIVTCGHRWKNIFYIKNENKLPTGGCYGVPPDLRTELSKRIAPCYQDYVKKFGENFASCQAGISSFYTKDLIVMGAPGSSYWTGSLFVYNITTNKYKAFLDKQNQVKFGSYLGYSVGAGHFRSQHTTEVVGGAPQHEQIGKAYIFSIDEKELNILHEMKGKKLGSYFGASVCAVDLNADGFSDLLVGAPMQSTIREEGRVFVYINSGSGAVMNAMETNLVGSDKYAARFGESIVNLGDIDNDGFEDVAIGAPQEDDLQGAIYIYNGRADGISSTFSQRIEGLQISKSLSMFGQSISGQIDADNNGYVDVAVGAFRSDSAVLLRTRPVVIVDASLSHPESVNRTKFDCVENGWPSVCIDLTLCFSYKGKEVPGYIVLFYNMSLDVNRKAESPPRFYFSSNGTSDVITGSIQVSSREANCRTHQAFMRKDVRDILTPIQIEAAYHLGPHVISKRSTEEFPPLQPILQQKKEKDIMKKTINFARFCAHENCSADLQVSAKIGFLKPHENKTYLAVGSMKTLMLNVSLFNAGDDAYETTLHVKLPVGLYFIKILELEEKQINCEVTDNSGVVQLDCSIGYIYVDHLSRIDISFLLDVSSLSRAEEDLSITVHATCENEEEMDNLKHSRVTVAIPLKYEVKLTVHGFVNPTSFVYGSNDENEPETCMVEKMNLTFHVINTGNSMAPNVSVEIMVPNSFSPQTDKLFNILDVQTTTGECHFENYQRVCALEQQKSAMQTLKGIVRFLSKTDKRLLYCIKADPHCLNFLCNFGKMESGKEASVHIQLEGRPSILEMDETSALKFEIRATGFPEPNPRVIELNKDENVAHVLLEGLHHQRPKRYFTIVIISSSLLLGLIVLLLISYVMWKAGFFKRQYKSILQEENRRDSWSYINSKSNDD
T1 sequence (P26010 whole entry): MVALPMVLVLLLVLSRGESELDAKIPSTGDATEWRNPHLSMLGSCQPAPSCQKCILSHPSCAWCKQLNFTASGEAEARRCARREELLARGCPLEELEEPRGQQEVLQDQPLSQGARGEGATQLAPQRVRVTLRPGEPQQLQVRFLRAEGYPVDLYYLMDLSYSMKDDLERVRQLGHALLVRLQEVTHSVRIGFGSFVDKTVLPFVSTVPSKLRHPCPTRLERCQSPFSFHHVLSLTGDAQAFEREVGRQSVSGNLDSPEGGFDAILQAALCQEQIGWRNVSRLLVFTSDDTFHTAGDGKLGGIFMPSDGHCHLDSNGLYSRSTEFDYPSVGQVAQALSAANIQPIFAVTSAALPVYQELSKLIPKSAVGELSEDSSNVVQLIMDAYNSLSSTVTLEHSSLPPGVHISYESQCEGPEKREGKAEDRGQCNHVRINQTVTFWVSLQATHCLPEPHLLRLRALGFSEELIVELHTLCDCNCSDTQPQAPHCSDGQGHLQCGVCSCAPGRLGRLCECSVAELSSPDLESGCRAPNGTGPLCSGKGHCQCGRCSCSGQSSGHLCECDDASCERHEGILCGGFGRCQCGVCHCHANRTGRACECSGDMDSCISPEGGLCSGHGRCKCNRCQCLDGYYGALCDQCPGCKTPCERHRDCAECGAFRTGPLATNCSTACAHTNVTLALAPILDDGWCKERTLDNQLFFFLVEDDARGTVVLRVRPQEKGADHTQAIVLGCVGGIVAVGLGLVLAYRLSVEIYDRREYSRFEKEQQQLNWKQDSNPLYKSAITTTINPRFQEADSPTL
Kind of data set: Inhibition of human integrin alpha-4-beta-7-MAdCAM interaction in human RPMI 8866 cells by whole-cell adhesion assay. It counts as cell-based.

The target of a further data set is Integrin alpha-4/beta-1 (Homo sapiens, UniProt P05556+P13612). Put plainly: Inhibition of integrin alpha-4-beta-1-VCAM interaction. The class given is protein-complex assay.
The target in a further data set is Integrin alpha-5/beta-1 (Homo sapiens, UniProt P05556+P08648). Put plainly: Inhibition of integrin alpha-5-beta-1-fibronectin interaction. The class given is protein-complex assay.
Data set [1] in a line: Oral bioavailability in mouse. It counts as ADME, organism-based. As to conditions: in vivo.
Data set [2] in a line: Half life in mouse. It counts as ADME, organism-based. As to conditions: in vivo.
A short description of data set [3]: Clearance in mouse. It counts as ADME, organism-based. As to conditions: in vivo.
Data set [4] can be described thus: Volume of distribution in mouse. The class given is ADME, organism-based. As to conditions: in vivo.
The species named for the next data set is Mus musculus. Put plainly: AUC in mouse. It counts as ADME, organism-based, Plasma. The conditions noted are these: in vivo.

pIC50: −log10 of the molar value. A value given as a limit tells only on which side of the number the result lay.

Integrin alpha-4/beta-1, sequence (P05556 whole entry, one chain of several): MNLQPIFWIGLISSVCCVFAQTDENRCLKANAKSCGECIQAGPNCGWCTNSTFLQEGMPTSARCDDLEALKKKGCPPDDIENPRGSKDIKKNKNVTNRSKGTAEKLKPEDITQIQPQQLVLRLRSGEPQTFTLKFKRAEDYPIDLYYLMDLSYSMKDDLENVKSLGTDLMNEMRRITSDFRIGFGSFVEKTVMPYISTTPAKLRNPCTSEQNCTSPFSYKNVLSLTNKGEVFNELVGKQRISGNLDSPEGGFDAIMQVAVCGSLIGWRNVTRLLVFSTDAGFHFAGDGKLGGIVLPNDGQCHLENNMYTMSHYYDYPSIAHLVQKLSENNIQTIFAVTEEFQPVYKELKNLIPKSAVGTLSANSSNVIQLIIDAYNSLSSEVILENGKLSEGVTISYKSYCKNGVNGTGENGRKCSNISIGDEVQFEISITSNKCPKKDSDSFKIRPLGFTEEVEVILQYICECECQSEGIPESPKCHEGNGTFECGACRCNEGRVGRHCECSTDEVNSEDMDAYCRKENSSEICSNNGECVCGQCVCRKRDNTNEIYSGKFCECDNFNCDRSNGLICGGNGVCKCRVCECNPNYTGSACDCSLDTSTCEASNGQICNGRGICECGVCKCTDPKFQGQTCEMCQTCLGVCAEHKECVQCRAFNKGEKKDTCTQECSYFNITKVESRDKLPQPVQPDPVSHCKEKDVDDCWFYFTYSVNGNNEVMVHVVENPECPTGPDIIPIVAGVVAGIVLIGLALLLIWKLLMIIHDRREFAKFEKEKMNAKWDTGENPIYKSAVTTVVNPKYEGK
Integrin alpha-5/beta-1, sequence (P05556 21-798 limits assumed): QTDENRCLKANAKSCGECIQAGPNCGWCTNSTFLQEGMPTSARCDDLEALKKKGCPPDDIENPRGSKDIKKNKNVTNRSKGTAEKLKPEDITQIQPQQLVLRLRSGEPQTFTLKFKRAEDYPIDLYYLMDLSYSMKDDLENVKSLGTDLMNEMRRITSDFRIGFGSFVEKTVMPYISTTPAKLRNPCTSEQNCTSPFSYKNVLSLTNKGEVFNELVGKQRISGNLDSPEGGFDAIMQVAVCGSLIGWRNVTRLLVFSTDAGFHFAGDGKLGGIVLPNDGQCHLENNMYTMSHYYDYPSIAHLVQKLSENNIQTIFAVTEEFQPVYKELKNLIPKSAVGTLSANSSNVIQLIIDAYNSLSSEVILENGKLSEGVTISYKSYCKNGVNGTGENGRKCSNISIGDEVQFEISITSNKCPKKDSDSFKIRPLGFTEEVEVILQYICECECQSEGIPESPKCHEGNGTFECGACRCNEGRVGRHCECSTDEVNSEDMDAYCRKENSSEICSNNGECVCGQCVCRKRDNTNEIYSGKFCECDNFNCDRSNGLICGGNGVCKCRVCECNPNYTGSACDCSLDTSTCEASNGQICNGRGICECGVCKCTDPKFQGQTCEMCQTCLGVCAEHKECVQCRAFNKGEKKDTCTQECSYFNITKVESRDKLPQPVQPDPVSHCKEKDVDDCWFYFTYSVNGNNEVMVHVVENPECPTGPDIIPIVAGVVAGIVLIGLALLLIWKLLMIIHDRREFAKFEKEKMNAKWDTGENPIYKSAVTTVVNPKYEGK
Integrin alpha-5/beta-1, sequence (P08648 42-894 limits assumed): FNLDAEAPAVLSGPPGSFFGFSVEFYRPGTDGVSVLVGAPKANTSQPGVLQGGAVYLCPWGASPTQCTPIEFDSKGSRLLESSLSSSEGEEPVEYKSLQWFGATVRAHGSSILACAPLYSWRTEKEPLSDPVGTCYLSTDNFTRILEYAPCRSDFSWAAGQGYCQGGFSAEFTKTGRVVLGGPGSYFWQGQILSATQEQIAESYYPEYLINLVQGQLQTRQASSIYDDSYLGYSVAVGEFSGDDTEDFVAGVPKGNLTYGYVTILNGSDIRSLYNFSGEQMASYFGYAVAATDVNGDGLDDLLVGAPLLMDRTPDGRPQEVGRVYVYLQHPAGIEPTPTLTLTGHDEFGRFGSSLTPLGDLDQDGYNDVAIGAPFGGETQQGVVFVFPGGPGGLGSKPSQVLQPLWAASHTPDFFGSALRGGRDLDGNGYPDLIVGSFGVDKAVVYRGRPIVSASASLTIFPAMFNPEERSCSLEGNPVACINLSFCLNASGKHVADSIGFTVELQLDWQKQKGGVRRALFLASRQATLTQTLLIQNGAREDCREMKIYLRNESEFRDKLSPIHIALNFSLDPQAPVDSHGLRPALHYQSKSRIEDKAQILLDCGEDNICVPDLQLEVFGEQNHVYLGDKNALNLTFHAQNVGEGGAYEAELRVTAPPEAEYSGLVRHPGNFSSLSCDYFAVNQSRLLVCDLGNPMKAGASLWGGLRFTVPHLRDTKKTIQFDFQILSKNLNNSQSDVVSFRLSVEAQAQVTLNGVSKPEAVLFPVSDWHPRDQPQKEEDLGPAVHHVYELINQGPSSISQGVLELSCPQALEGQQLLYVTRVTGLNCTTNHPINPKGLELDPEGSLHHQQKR
Integrin alpha-5/beta-1, sequence (P08648 895-1049 limits assumed): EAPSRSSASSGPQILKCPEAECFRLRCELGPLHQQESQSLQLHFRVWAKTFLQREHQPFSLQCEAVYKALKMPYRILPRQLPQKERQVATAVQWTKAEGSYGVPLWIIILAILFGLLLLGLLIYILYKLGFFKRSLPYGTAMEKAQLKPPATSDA

For orientation: pIC50 means the IC50 on a negative log10 scale, so that one unit is a factor of ten. As to `O=C1NC(=O)N(c2ccccc2)C(=O)/C1=C\c1ccccc1`, the pIC50 on Integrin alpha-4/beta-7 is 5.66.

`O=C1NC(=O)N(c2ccccc2)C(=O)/C1=C\c1ccc(C(F)(F)F)cc1` showed a pIC50 against Integrin alpha-4/beta-7 of 5.89. As for `O=C1NC(=O)N(c2ccccc2-c2ccccc2)C(=O)/C1=C\c1c[nH]c2ccccc12`, the pIC50 against Integrin alpha-4/beta-7 was 6.59; on Integrin alpha-4/beta-1 it was below 4.70; against Integrin alpha-5/beta-1, below 4.70. For the molecule `O=C1NC(=O)N(c2ccccc2)C(=O)/C1=C\c1cc2ccccc2[nH]1`, the pIC50 against Integrin alpha-4/beta-7 is 5.00.

`Cn1cc(/C=C2/C(=O)NC(=O)N(c3ccccc3)C2=O)c2ccccc21`: the pIC50 on Integrin alpha-4/beta-7 was 5.39.

As to `O=C1NC(=O)N(c2ccccc2)C(=O)/C1=C\c1ccco1`, the pIC50 on Integrin alpha-4/beta-7 is 5.89; against Integrin alpha-4/beta-1, below 4.70; against Integrin alpha-5/beta-1, below 4.70. As to `O=C1NC(=O)N(c2cc(Cl)cc(Cl)c2)C(=O)/C1=C\c1ccccc1`, the negative logarithm of the IC50 (pIC50) on Integrin alpha-4/beta-7 is 5.80.

Molecule `Cn1cc(/C=C2/C(=O)NC(=O)N(c3cccc4ccccc34)C2=O)c2ccccc21` had a pIC50 on Integrin alpha-4/beta-7 of 6.74.

`CC(C)(C)N1C(=O)NC(=O)/C(=C/c2c[nH]c3ccccc23)C1=O` gave a pIC50 at Integrin alpha-4/beta-7 below 4.70. Usually bioavailability stands for dose-corrected exposure relative to a reference, in per cent. High values mean much systemic uptake, low ones little systemic uptake. Broadly, the half-life is how long it takes for the measured level to halve. The low end stands for fast loss, the high end for slow loss. For orientation: clearance means the rate of elimination divided by the concentration. Lower therefore signals a low capacity for elimination. As a reminder, the Vd is a proportionality between amount in the body and measured concentration, not a real space. As a reminder, the AUC is the area under the concentration-time curve, a measure of exposure. Lower therefore signals less exposure. As to `O=C1NC(=O)N(c2cccc3ccccc23)C(=O)/C1=C\c1c[nH]c2ccccc12`, the pIC50 was 7.22 against Integrin alpha-4/beta-7, below 4.70 against Integrin alpha-4/beta-1 and below 4.70 on Integrin alpha-5/beta-1. Besides, the bioavailability in data set [1] worked out at 62%. In data set [2], this molecule showed a half-life of 4.1 h. This molecule also yielded a clearance in data set [3] of 71 mL/min/kg. The same molecule displayed a Vd in data set [4] of 24.8 L/kg. The molecule further came in with an AUC in the data set filed under Mus musculus of 170 mg·min/mL.

With `O=C1NC(=O)N(c2ccccc2)C(=O)/C1=C\c1c[nH]c2ccccc12`, the pIC50 at Integrin alpha-4/beta-7 was 6.05. Still for that read-out and setting: the figure for `O=C(/C=C1/C(=O)NC(=O)N(c2ccccc2)C1=O)/C=C/c1ccccc1` is 5.07. Molecule `O=C1NC(=O)N(c2ccc(Cl)cc2)C(=O)/C1=C\c1ccccc1` had a pIC50 against Integrin alpha-4/beta-7 of 6.00. On to `CN1C(=O)/C(=C/c2c[nH]c3ccccc23)C(=O)N(c2cccc3ccccc23)C1=O`, for which the negative logarithm of the IC50 (pIC50) at Integrin alpha-4/beta-7 is 5.26.
